Patent US11179397B2, “Imidazopyrimidine derivatives” (Gilead Sciences, Inc., priority 2018, dated 2021)
pEC50, pIC50: −log10 of the molar value.

Experiments:
[1] = biological target: SHP-2 full length protein (Homo sapiens (Human), UniProt Q06124); assay: SHP-2 biochemical DiFMUP pseudosubstrate-fluorogenic assay; settings: 0.2 nM SHP-2, 1 μM IRS-1 activator peptide, 50 μM DiFMUP; read-out: SHP2 IC50
Procedure: SHP-2 Biochemical Assay Materials Recombinant SHP-2 full length protein was generated in house. SHP-2 protein tyrosine phosphatase (PTP) domain protein (Catalog number SPR0217-20 ug), NaCl (Catalog number S6546-1L), and KCl (Catalog number 60142-500 mL) were purchased from Sigma-Aldrich (St. Louis, Mo.). IRS-1_[…](dPEG8)[…] peptide […]) was custom made by AnaSpec (Fremont, Calif.). DiFMUP substrate (Catalog number D6567), EDTA (Catalog number E177-500 mL), DTT (Catalog number P2325), and 384-well black polystyrene non-binding surface (Catalog number 3820) were purchased from Fisher Scientific (Hanover Park, Ill.). HEPES (Catalog number 15630-080) was purchased from Life Technologies (Pleasanton, Calif.), and Tween-20 (Catalog number 95059-250) was purchased from VWR (Radnor, Pa.). Method Inhibition of SHP-2 activity by small molecule inhibitors was monitored by a biochemical DiFMUP pseudosubstrate-fluorogenic assay. […] The reaction mix was added to the 384-well non-binding plate which had been pre-spotted with 1:3 serial diluted compounds from 10,000-0.005 nM, and incubated at room temperature for 90 min. DiFMUP substrate at final concentration of 50 μM was then added to the wells and incubated for additional 30 min at room temperature. The final reaction volume was 20 μl/well. […] The inhibitor dose response curves were generated using normalized IC50 regression curve fitting by in house dose response analysis tools. The wells with DMSO vehicle were used as controls (100% signal). The percent (%) control of SHP-2 compound was calculated as: (Compound well fluorescence counts/DMSO fluorescence counts)×100%.

NCI-H358 cells = assay: NCI-H358 3D tumor spheroid growth inhibition; type: cell-based; settings: Homo sapiens, NCI-H358, 168 h, 3D spheroids, 7 days, 3D CellTiter Glo; cellular IC50 designated EC50; read-out: H358 EC50
From the text: SHP-2 Cell Based Assay: […] Materials NCI-H358 cell line was purchased from [NT] number ATCC CRL-5807) (Manassas, Va.). RPMI-1640 (Catalog number 10-040-CM) was from Corning Cellgro (Manassas, Va.), Fetal Bovine Serum (FBS) (Catalog number SH30071.03) was from HyClone (Logan, Utanh), and 100× Penicillin/Streptomycin/L-Glutamine stock (Catalog no. 30-009-CI) and 384-well ULA plates (Catalog number 3830) were from Corning (Fremont, Calif.). Method […] At the day of assay, the cells were trypsinized and seeded at 1000 cells/70 μl/well in 384-well ULA plates and incubated at 37° C. incubator with 5% CO2 to allow spheroids to form. […] The plates were incubated for additional 7 days. Then 35 μl of medium from each well was removed, and replaced with 35 μl of 3D CellTiter Glo reagent from Promega. The wells were mixed by pipetting up and down with Biomek FX for 15 times to induce cell lysis and the plates were incubated at room temperature for additional 10 min to stabilize luminescent signal. The luminescence was then read by Envision. The inhibitor dose response curves were generated using normalized cellular IC50 (designated as EC50 in all FIGURES to distinguish from biochemical IC50s) by in house dose response analyses tools. The wells with DMSO vehicle were used as negative controls (0% inhibition). The % inhibition of SHP-2 compounds was calculated as: 100-[(Compound well luminescence counts/DMSO luminescence counts)×100%].

Chain of SHP-2 full length protein (Q06124 whole entry): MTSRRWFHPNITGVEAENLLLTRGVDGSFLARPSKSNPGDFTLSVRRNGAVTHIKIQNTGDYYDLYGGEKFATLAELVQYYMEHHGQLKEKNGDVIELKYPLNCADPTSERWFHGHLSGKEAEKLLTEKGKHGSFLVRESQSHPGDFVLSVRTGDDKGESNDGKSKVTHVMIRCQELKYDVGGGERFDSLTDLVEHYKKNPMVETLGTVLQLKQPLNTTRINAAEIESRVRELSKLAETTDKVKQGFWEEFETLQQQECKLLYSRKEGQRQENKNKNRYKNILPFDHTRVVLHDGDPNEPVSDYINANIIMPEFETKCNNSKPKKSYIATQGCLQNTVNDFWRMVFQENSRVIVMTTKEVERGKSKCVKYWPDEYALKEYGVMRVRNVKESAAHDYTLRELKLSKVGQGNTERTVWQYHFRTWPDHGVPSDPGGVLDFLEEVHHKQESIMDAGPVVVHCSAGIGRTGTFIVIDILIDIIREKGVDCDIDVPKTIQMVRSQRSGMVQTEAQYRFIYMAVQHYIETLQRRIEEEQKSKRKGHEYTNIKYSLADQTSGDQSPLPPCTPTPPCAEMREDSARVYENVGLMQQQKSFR

Compound `COc1ccc2nccc(Sc3cnc(N4CCC5(CC4)CO[C@@H](C)[C@H]5N)n4ccnc34)c2c1` [Example 132, (3S,4S)-8-(8-((6-methoxyquinolin-4-yl)thio)imidazo[1,2-c]pyrimidin-5-yl)-3-methyl-2-oxa-8-azaspiro[4.5]decan-4-amine] has a pIC50 [1] of 7.66 and a pEC50 (NCI-H358 cells) of 6.54.
Work on `C[C@H](N)C1CCN(c2ncc(Sc3cccc(Cl)c3Cl)c3nccn23)CC1` [Example 91, (S)-1-(1-(8-((2,3-dichlorophenyl)thio)imidazo[1,2-c]pyrimidin-5-yl)piperidin-4-yl)ethan-1-amine] yielded a pIC50 [1] of 6.77 and a pEC50 (NCI-H358 cells) of 5.70.
Work on `CC(=O)Nc1cccc2c(Sc3cnc(N4CCC5(CC4)CO[C@@H](C)[C@H]5N)n4ccnc34)ccnc12` [Example 112, N-(4-((5-((3S,4S)-4-amino-3-methyl-2-oxa-8-azaspiro[4.5]decan-8-yl)imidazo[1,2-c]pyrimidin-8-yl)thio)quinolin-8-yl)acetamide] yielded a pIC50 [1] of 8.00 and a pEC50 (NCI-H358 cells) of 7.25.
In the case of `CC(C)Sc1ccccc1Sc1cnc(N2CCC3(CC2)Cc2ccccc2[C@H]3N)n2ccnc12` [Example 143, (S)-1′-(8-((2-(isopropylthio)phenyl)thio)imidazo[1,2-c]pyrimidin-5-yl)-1,3-dihydrospiro[indene-2,4′-piperidin]-1-amine], the pIC50 [1] was 7.96 and the pEC50 (NCI-H358 cells) was 6.59.
In the case of `Cc1nc(N2CCC3(CCC[C@H]3N)CC2)n2ccnc2c1-c1ccc(Cl)c(Cl)c1` [Example 25, (R)-8-(8-(3,4-dichlorophenyl)-7-methylimidazo[1,2-c]pyrimidin-5-yl)-8-azaspiro[4.5]decan-1-amine], the pIC50 [1] was 7.02 and the pEC50 (NCI-H358 cells) was 5.82.
`N[C@@H]1C[C@H](O)CC12CCN(c1ncc(Sc3cccc(Cl)c3Cl)c3nccn13)CC2` [Example 35, (2R,4R)-4-amino-8-(8-((2,3-dichlorophenyl)thio)imidazo[1,2-c]pyrimidin-5-yl)-8-azaspiro[4.5]decan-2-ol] gave a pIC50 [1] of 8.92 and a pEC50 (NCI-H358 cells) of 7.49.
In the case of `N[C@@H]1c2ccccc2CC12CCN(c1ncc(Sc3cccc(Cl)c3Cl)c3nccn13)CC2` [Example 85, (S)-1′-(8-((2,3-dichlorophenyl)thio)imidazo[1,2-c]pyrimidin-5-yl)-1,3-dihydrospiro[indene-2,4′-piperidin]-1-amine], the pIC50 [1] was 8.68 and the pEC50 (NCI-H358 cells) was 7.96.
Work on `Cc1nc(N2CCC3(CCC[C@H]3N)CC2)n2ccnc2c1-c1cccc(Cl)c1` [Example 23, (R)-8-(8-(3-chlorophenyl)-7-methylimidazo[1,2-c]pyrimidin-5-yl)-8-azaspiro[4.5]decan-1-amine] yielded a pIC50 [1] of 6.80 and a pEC50 (NCI-H358 cells) of 5.82.
`C[C@@H]1OCC2(CCN(c3ncc(Sc4ccnc5c(-n6cncn6)cccc45)c4nccn34)CC2)[C@@H]1N` [Example 109, (3S,4S)-8-(8-((8-(1H-1,2,4-triazol-1-yl)quinolin-4-yl)thio)imidazo[1,2-c]pyrimidin-5-yl)-3-methyl-2-oxa-8-azaspiro[4.5]decan-4-amine] gave a pIC50 [1] of 7.74 and a pEC50 (NCI-H358 cells) of 6.59.
`C[C@@H]1OCC2(CCN(c3ncc(Sc4cccc5ccsc45)c4nccn34)CC2)[C@@H]1N` [Example 99, (3S,4S)-8-(8-(benzo[b]thiophen-7-ylthio)imidazo[1,2-c]pyrimidin-5-yl)-3-methyl-2-oxa-8-azaspiro[4.5]decan-4-amine] showed a pIC50 [1] of 8.39 and a pEC50 (NCI-H358 cells) of 7.02.
In the case of `N[C@@H]1CCCC12CCN(c1ncc(Sc3cccn4cnnc34)c3nccn13)CC2` [Example 83, (R)-8-(8-([1,2,4]triazolo[4,3-a]pyridin-8-ylthio)imidazo[1,2-c]pyrimidin-5-yl)-8-azaspiro[4.5]decan-1-amine], the pIC50 [1] was 6.82 and the pEC50 (NCI-H358 cells) was under 4.90.
With `Cc1nc(N2CCC3(CC2)CO[C@@H](C)[C@H]3N)n2cnnc2c1-c1cccc(Cl)c1Cl` [Example 67, (3S,4S)-8-(8-(2,3-dichlorophenyl)-7-methyl-[1,2,4]triazolo[4,3-c]pyrimidin-5-yl)-3-methyl-2-oxa-8-azaspiro[4.5]decan-4-amine] the pIC50 [1] was 8.19 and the pEC50 (NCI-H358 cells) was 7.00.
`C[C@@H]1OCC2(CCN(c3ncc(Sc4cccc(Cl)c4Cl)c4nccn34)CC2)[C@@H]1N` [Example 55, (3S,4S)-8-(8-((2,3-dichlorophenyl)thio)imidazo[1,2-c]pyrimidin-5-yl)-3-methyl-2-oxa-8-azaspiro[4.5]decan-4-amine] gave a pIC50 [1] of 8.82 and a pEC50 (NCI-H358 cells) of 7.31.
`C[C@@H]1OCC2(CCN(c3ncc(Sc4cccc5cnsc45)c4nccn34)CC2)[C@@H]1N` [Example 107, (3S,4S)-8-(8-(benzo[d]isothiazol-7-ylthio)imidazo[1,2-c]pyrimidin-5-yl)-3-methyl-2-oxa-8-azaspiro[4.5]decan-4-amine] was tested, and the pIC50 [1] was 8.43 and the pEC50 (NCI-H358 cells) was 7.19.
Work on `N[C@@H]1CCCC12CCN(c1ncc(Sc3ccc4cn[nH]c4c3)c3nccn13)CC2` [Example 77, (R)-8-(8-((1H-indazol-6-yl)thio)imidazo[1,2-c]pyrimidin-5-yl)-8-azaspiro[4.5]decan-1-amine] yielded a pIC50 [1] of 6.74 and a pEC50 (NCI-H358 cells) of 5.51.
`C[C@@H]1OCC2(CCN(c3ncc(Sc4cc(N)ncc4C(F)(F)F)c4nccn34)CC2)[C@@H]1N` [Example 38, (3S,4S)-8-(8-((2-amino-5-(trifluoromethyl)pyridin-4-yl)thio)imidazo[1,2-c]pyrimidin-5-yl)-3-methyl-2-oxa-8-azaspiro[4.5]decan-4-amine] showed a pIC50 [1] of 8.23 and a pEC50 (NCI-H358 cells) of 7.23.
Compound `C[C@@H]1OCC2(CCN(c3ncc(Sc4cc(N)nc5ccccc45)c4nccn34)CC2)[C@@H]1N` [Example 111, (3S,4S)-8-(8-((2-aminoquinolin-4-yl)thio)imidazo[1,2-c]pyrimidin-5-yl)-3-methyl-2-oxa-8-azaspiro[4.5]decan-4-amine] has a pIC50 [1] of 8.15 and a pEC50 (NCI-H358 cells) of 6.77.
With `C[C@@H]1OCC2(CCN(c3ncc(Sc4cccc5ncccc45)c4nccn34)CC2)[C@@H]1N` [Example 129, (3S,4S)-3-methyl-8-(8-(quinolin-5-ylthio)imidazo[1,2-c]pyrimidin-5-yl)-2-oxa-8-azaspiro[4.5]decan-4-amine] the pIC50 [1] was 8.00 and the pEC50 (NCI-H358 cells) was 6.82.
`C[C@@H]1OCC2(CCN(c3ncc(Sc4ccnc5c(C(N)=O)cccc45)c4nccn34)CC2)[C@@H]1N` [Example 113, 4-((5-((3S,4S)-4-amino-3-methyl-2-oxa-8-azaspiro[4.5]decan-8-yl)imidazo[1,2-c]pyrimidin-8-yl)thio)quinoline-8-carboxamide] gave a pIC50 [1] of 7.96 and a pEC50 (NCI-H358 cells) of 6.47.
With `C[C@@H]1OCC2(CCN(c3ncc(Sc4ccnc5cnccc45)c4nccn34)CC2)[C@@H]1N` [Example 126, (3S,4S)-8-(8-((1,7-naphthyridin-4-yl)thio)imidazo[1,2-c]pyrimidin-5-yl)-3-methyl-2-oxa-8-azaspiro[4.5]decan-4-amine] the pIC50 [1] was 7.82 and the pEC50 (NCI-H358 cells) was 6.92.
Work on `NC1Cc2ccccc2C12CCN(c1ncc(Sc3cccc(Cl)c3Cl)c3nccn13)CC2` (stereo not drawn) [Example 124, 1′-(8-((2,3-dichlorophenyl)thio)imidazo[1,2-c]pyrimidin-5-yl)-2,3-dihydrospiro[indene-1,4′-piperidin]-2-amine] yielded a pIC50 [1] of 7.64 and a pEC50 (NCI-H358 cells) of 6.12.
In the case of `Nc1cccc(Sc2cnc(N3CCC4(CC3)Cc3ccccc3[C@H]4N)n3ccnc23)c1Cl` [Example 137, (S)-1′-(8-((3-amino-2-chlorophenyl)thio)imidazo[1,2-c]pyrimidin-5-yl)-1,3-dihydrospiro[indene-2,4′-piperidin]-1-amine], the pEC50 (NCI-H358 cells) was 7.92.
Work on `CC1(N)CCN(c2ncc(Sc3ccnc(N)c3Cl)c3nccn23)CC1` [Example 36] yielded a pEC50 (NCI-H358 cells) of under 4.90.
`Cc1nc(N2CCC3(CC2)Cc2cc(F)ccc2[C@H]3N)n2ccnc2c1-c1cccc(Cl)c1Cl` [Example 133, (S)-1′-(8-(2,3-dichlorophenyl)-7-methylimidazo[1,2-c]pyrimidin-5-yl)-5-fluoro-1,3-dihydrospiro[indene-2,4′-piperidin]-1-amine] gave a pEC50 (NCI-H358 cells) of 7.68.
